Measured values published in patent US20060127432A1, “Surface treatment for wood and wood products” (priority 2002, published 2006).
Marks after values point to notes of the source that are not given here.

Columns and labels:
[1] = system: Mastotermes darwiniensis; assay: Field drum test (AWPA protocols), treated radiata pine exposed to termites; assay type: in vivo; design: Mean score: scale not given here; settings: for Mean score / Pass or Fail: radiata pine, field
Procedure: (§1) The rates required to achieve protection are 4 and 23 g/m3 applied on the surface of 35×90 mm radiata pine for Coptotermes acinaciformis and Mastotermes darwiniensis respectively. These studies were conducted using the drum test described by the AWPA protocols.

[2] = Bonding to timber; assay type: physicochemical; settings: compared with Permethrin
Description: (§2) These two attributes of bonding & water insolubility, together with the abovementioned stability when exposed to temperature and UV result in the chemical staying on the timber when exposed to rain, sunlight, temperature or handling. No other chemicals used in the past have such characteristics which would allow a mere superficial treatment.

[3] = Solubility in water; assay type: physicochemical
Description: as §2

[4] = system: Coptotermes acinaciformis; assay: Timber protection using standard practice in the timber industry; assay type: in vivo
Description: (§3) The rates are 5 and 20 g/m3 respectively.

[5] = system: Mastotermes darwiniensis; assay: as above; assay type: in vivo
Description: as §3

[6] = system: termites; assay: Simulated house frames exposed to 120,000 termites; assay type: in vivo; settings: superficial treatment, ends not treated; six months of exposure, 120,000 termites
Description: The ends of the samples were not treated. Simulated frames were exposed to 120,000 termites.

[7] = system: Coptotermes acinaciformis; assay: Field drum test (AWPA protocols), treated radiata pine exposed to termites; assay type: in vivo; design: key to Mean rating: 1: Sound; 2: Superficial attack-grazing; Penetration - >3 mm in depth; 4: Attack Slight −10-25% mass loss; Attack Moderate 25-50% mass loss; 6: Attack Severe 50-70% mass loss; Attack Destroyed 75-100% mass loss; settings: for Mean rating / Success (Pass or Fail) / Pass or Fail: radiata pine, field
Procedure: as §1
Additives can be incorporated during the application of bifenthrin, for example colors, fire retardants, water repellents and resins.
A modification of superficial treatments is the partial introduction of bifenthrin into the wood. The result of this is an envelope around the cross section of the timber board or wood product or just a partial penetration.

[8] = system: workers who handled the treated timber; assay: OH&S testing, handling of treated timber; assay type: in vivo
Description: (§4) Until this invention, adequately protecting timber against termite attack required a treatment which provided significant penetration of the sapwood. This was the case due to the fact that other available active ingredients degraded very quickly when exposed to increased temperature and Ultra Violet (UV) light. The penetration was required to protect the active ingredient (“active”) from the degradation. The most common used active in the 1990's which penetrated the timber was Permethrin. […] Thus, when using Permethrin, it was required to penetrate into the timber otherwise the product would degrade and not protect the timber. […] This problem was so severe that it made the use of Deltamethin unviable.
(§5) This increased stability together with the repellent effects of Bifenthrin combined to allow only a superficial treating of the timber where the need for significant penetration is not required.

[9] = Degradation on exposure to temperature and UV light; assay type: physicochemical
Description: as §4, §5

[10] = 15 g/m^3, superficial treatment
[11] = 23 g/m^3, superficial treatment
[12] = 38 g/m^3, superficial treatment
[13] = applied on the surface of 35×90 mm radiata pine (dipping or spraying)
[14] = 4 g/m^3 + water repellents, superficial treatment
[15] = 8 g/m^3 + water repellents, superficial treatment
[16] = 15 g/m^3 + water repellents, superficial treatment
[17] = 23 g/m^3 + water repellents, superficial treatment
[18] = Partial penetration more than 3 mm, 6-12 g/m^3
[19] = Partial penetration more than 3 mm, 13-20 g/m^3

Structure (SMILES): Cc1c(COC(=O)[C@@H]2[C@H](/C=C(\Cl)C(F)(F)F)C2(C)C)cccc1-c1ccccc1 (racemic) [Bifenthrin]
- Mean score ([1]; 4 g/m^3, superficial treatment): 3.3
- Pass or Fail ([1]; 4 g/m^3, superficial treatment): Fail
- Mean score ([1]; 8 g/m^3, superficial treatment): 2.2
- Pass or Fail ([1]; 8 g/m^3, superficial treatment): Fail
- Mean score [1, 10]: 2.0
- Pass or Fail [1, 10]: Fail
- Mean score [1, 11]: 1.7
- Pass or Fail [1, 11]: Pass
- Mean score [1, 12]: 1.0
- Pass or Fail [1, 12]: Pass
- Rate required to achieve protection [1, 13]: 23 g/m3
- Bonding co-efficient [2]: significantly greater than that of Permethrin
- Solubility in water [3]: virtually insoluble in water
- Rate required to protect timber [4]: 5 g/m3
- Rate required to protect timber [5]: 20 g/m3
- Attack of simulated frames [6]: the treated frames were not
- Mean rating [7, 14]: 1.2
- Success (Pass or Fail) [7, 14]: Pass
- Mean rating [7, 15]: 1.3
- Success (Pass or Fail) [7, 15]: Pass
- Mean rating [7, 16]: 1.2^b
- Success (Pass or Fail) [7, 16]: Pass
- Mean rating [7, 17]: 1.2
- Success (Pass or Fail) [7, 17]: Pass
- Mean rating [7, 18]: 1.0
- Success (Pass or Fail) [7, 18]: Pass
- Mean rating [7, 19]: 1.0
- Success (Pass or Fail) [7, 19]: Pass
- Repellent effect with added water repellents ([7]; addition of water repellents): did not mask the repellent effect
- Rate required to achieve protection [7, 13]: 4 g/m3
- Skin irritation / parasthesia on exposure to treated timber [8]: does not produce any skin irritation
- Degradation through exposure to UV or heat ([9]; superficially treated timber): significant penetration was not required to protect the active against degradation

Structure (SMILES): CC1(C)[C@H](C(=O)O[C@H](C#N)c2cccc(Oc3ccccc3)c2)[C@@H]1C=C(Br)Br [Deltamethrin]
- Skin irritation / parasthesia on exposure to treated timber [8]: all workers who handled the treated timber complained of a parasthesia or skin irritation
- Resistance to UV light [9]: degrade rapidly when exposed to UV light

Structure (SMILES): CC1(C)C(C=C(Cl)Cl)C1C(=O)OCc1cccc(Oc2ccccc2)c1 (stereo not drawn) [permethrin, Permethrin]
- Mean score ([1]; 0.02% m/m permethrin (LOSP)): 1.8
- Pass or Fail ([1]; 0.02% m/m permethrin (LOSP)): Pass
- Mean score ([1]; .007% m/m permethrin (LOSP)): 2.2
- Pass or Fail ([1]; .007% m/m permethrin (LOSP)): Fail
- Mean score ([1]; .013% m/m permethrin (LOSP)): 2.2
- Pass or Fail ([1]; .013% m/m permethrin (LOSP)): Fail
- Mean rating ([7]; 0.007% m/m OD permethrin): 2
- Pass or Fail ([7]; 0.007% m/m OD permethrin): Fail
- Mean rating ([7]; 0.013% m/m OD permethrin): 1.8
- Pass or Fail ([7]; 0.013% m/m OD permethrin): Fail
- Mean rating ([7]; 0.02% m/m OD permethrin): 1.3
- Pass or Fail ([7]; 0.02% m/m OD permethrin): Pass
- Resistance to UV light [9]: very low resistance to UV light
- Degradation on exposure to temperature ([9]; heat): degrade when exposed to temperatures above 25 degrees centigrade
